{"source": "patent US7795226B2", "about": "“Control of radiation injury” (Biotempt B.V., priority 2006, dated 2010)"}
{"tested_on": "cell-cycle marker pCDG and auxin-responsive marker DR5::GUS", "assay": "Arabidopsis thaliana seedling cell-cycle analysis (GUS markers)", "conditions": "Results from Examples 9 and 10", "procedure": "(§1) To further study anti-cell-cycle activity of various oligopeptides, a proliferation experiment in Arabidopsis Thaliana seedlings was performed. The aim was to test a group of 140 oligopeptides of varying length for their effect on plant marker gene expression during rapid growth when avid cell division occurs.\n(§2) The peptides were re-suspended in 1× Phosphate Buffer Saline (PBS) pH 8 to a final concentration of 5 mg/ml. The obtained solutions were then divided through 96-well round bottom plates (Corning Incorporated) at 40 microliters per well. Plates were stored before use at […] for four days. Seeds of Arabidopsis thaliana ecotype Ws-0 were surface sterilized in 2% commercial bleach (Gloria) for ten minutes and washed five times with sterile MQ water. The seeds were then re-suspended with 0.1% agar and plated on MS20 plates supplemented with 80 mg/l Kanamycin.\n(§3) The plates were placed at […] for two nights and then transferred to a climate room at […] and a 16/8 hours photoperiod. After four days of growth, the seedlings were transferred to 96-well plates containing the peptide solutions (four seedlings per well) and incubated for four and eight hours.\n(§4) For this experiment, Arabidopsis homozygous seedlings harboring two reporter genes fused to GUS were used. […] After incubation with the compounds, the seedlings were stained for GUS. The staining reaction was performed in 100 mM sodium phosphate buffer (pH 7.0) that contained 10 mM EDTA, 10% DMSO, 0.1% Triton X-100, 2 mM X-Gluc, 0.5 mM K3Fe(CN)6 and 0.5 mM K4Fe(CN)6 at […] for 16 hours. […] Seedlings were fixed and cleared in chloral hydrate solution for detailed microscopic observation and photography under a microscope equipped with DIC optics.\n(§5) Peptides were tested for an effect on marker gene expression on rapidly growing Arabidopsis young seedlings. This was monitored by changes on GUS distribution in different organs: root, root-hypocotyl transition zone and cotyledons."}
{"substance": "ITTL (human beta-catenin-derived peptide)", "identified as useful peptide for treatment of radiation injury from cell-cycle studies in plants and in vitro proliferation studies": "useful"}
{"substance": "LQAV (tetramer peptide)", "identified as useful peptide for treatment of radiation injury from cell-cycle studies in plants and in vitro proliferation studies": "useful"}
{"substance": "AFTV (CRP-derived peptide)", "identified as useful peptide for treatment of radiation injury from cell-cycle studies in plants and in vitro proliferation studies": "useful"}
{"substance": "VEGNL (pentamer peptide)", "identified as useful peptide for treatment of radiation injury from cell-cycle studies in plants and in vitro proliferation studies": "useful"}
{"substance": "TLAVE (beta-hCG-derived peptide)", "identified as useful peptide for treatment of radiation injury from cell-cycle studies in plants and in vitro proliferation studies": "useful"}
{"substance": "QVVC (tetramer peptide)", "identified as useful peptide for treatment of radiation injury from cell-cycle studies in plants and in vitro proliferation studies": "useful"}
{"substance": "DINGFLPAL", "identified as useful peptide for treatment of radiation injury from cell-cycle studies in plants and in vitro proliferation studies": "useful"}
{"substance": "VGGI", "identified as useful peptide for treatment of radiation injury from cell-cycle studies in plants and in vitro proliferation studies": "useful"}
{"substance": "SPIE (human beta-catenin-derived peptide)", "identified as useful peptide for treatment of radiation injury from cell-cycle studies in plants and in vitro proliferation studies": "useful"}
{"substance": "GVLC (human beta-catenin-derived peptide)", "identified as useful peptide for treatment of radiation injury from cell-cycle studies in plants and in vitro proliferation studies": "useful"}
{"substance": "QPLAPLVG", "identified as useful peptide for treatment of radiation injury from cell-cycle studies in plants and in vitro proliferation studies": "useful"}
{"substance": "CPVQ (tetramer peptide)", "identified as useful peptide for treatment of radiation injury from cell-cycle studies in plants and in vitro proliferation studies": "useful"}
{"substance": "LTCDDP", "identified as useful peptide for treatment of radiation injury from cell-cycle studies in plants and in vitro proliferation studies": "useful"}
{"substance": "APSL (human beta-catenin-derived peptide)", "identified as useful peptide for treatment of radiation injury from cell-cycle studies in plants and in vitro proliferation studies": "useful"}
{"substance": "NLIN (human beta-catenin-derived peptide) [NUN]", "identified as useful peptide for treatment of radiation injury from cell-cycle studies in plants and in vitro proliferation studies": "useful"}
{"substance": "EALE (tetramer peptide)", "identified as useful peptide for treatment of radiation injury from cell-cycle studies in plants and in vitro proliferation studies": "useful"}
{"substance": "EVVR (tetramer peptide)", "identified as useful peptide for treatment of radiation injury from cell-cycle studies in plants and in vitro proliferation studies": "useful"}
{"substance": "YAIT (human beta-catenin-derived peptide)", "identified as useful peptide for treatment of radiation injury from cell-cycle studies in plants and in vitro proliferation studies": "useful"}
{"substance": "EPPE (tetramer peptide)", "identified as useful peptide for treatment of radiation injury from cell-cycle studies in plants and in vitro proliferation studies": "useful"}
{"substance": "LNTI (human beta-catenin-derived peptide)", "identified as useful peptide for treatment of radiation injury from cell-cycle studies in plants and in vitro proliferation studies": "useful"}
{"substance": "LGTL", "identified as useful peptide for treatment of radiation injury from cell-cycle studies in plants and in vitro proliferation studies": "useful"}
{"substance": "QLLG (human beta-catenin-derived peptide)", "identified as useful peptide for treatment of radiation injury from cell-cycle studies in plants and in vitro proliferation studies": "useful"}
{"substance": "FSYA (CRP-derived peptide)", "identified as useful peptide for treatment of radiation injury from cell-cycle studies in plants and in vitro proliferation studies": "useful"}
{"substance": "NMWD (CRP-derived peptide)", "identified as useful peptide for treatment of radiation injury from cell-cycle studies in plants and in vitro proliferation studies": "useful"}
{"substance": "LCFL", "identified as useful peptide for treatment of radiation injury from cell-cycle studies in plants and in vitro proliferation studies": "useful"}
{"substance": "RVLQ (tetramer peptide)", "identified as useful peptide for treatment of radiation injury from cell-cycle studies in plants and in vitro proliferation studies": "useful"}
{"substance": "MGGTWA", "identified as useful peptide for treatment of radiation injury from cell-cycle studies in plants and in vitro proliferation studies": "useful"}
{"substance": "FVLS (CRP-derived peptide)", "identified as useful peptide for treatment of radiation injury from cell-cycle studies in plants and in vitro proliferation studies": "useful"}
{"substance": "EMFQ (tetramer peptide)", "identified as useful peptide for treatment of radiation injury from cell-cycle studies in plants and in vitro proliferation studies": "useful"}
{"substance": "RLPG", "identified as useful peptide for treatment of radiation injury from cell-cycle studies in plants and in vitro proliferation studies": "useful"}
{"substance": "VCNYRDV", "identified as useful peptide for treatment of radiation injury from cell-cycle studies in plants and in vitro proliferation studies": "useful"}
{"substance": "LHNL", "identified as useful peptide for treatment of radiation injury from cell-cycle studies in plants and in vitro proliferation studies": "useful"}
{"substance": "AVAL", "identified as useful peptide for treatment of radiation injury from cell-cycle studies in plants and in vitro proliferation studies": "useful"}
{"substance": "MTEV (tetramer peptide)", "identified as useful peptide for treatment of radiation injury from cell-cycle studies in plants and in vitro proliferation studies": "useful"}
{"substance": "QALG (human beta-catenin-derived peptide)", "identified as useful peptide for treatment of radiation injury from cell-cycle studies in plants and in vitro proliferation studies": "useful"}
{"substance": "FWVD (CRP-derived peptide)", "identified as useful peptide for treatment of radiation injury from cell-cycle studies in plants and in vitro proliferation studies": "useful"}
{"substance": "VLPAPLQ (septamer peptide)", "identified as useful peptide for treatment of radiation injury from cell-cycle studies in plants and in vitro proliferation studies": "useful"}
{"substance": "PGCP", "identified as useful peptide for treatment of radiation injury from cell-cycle studies in plants and in vitro proliferation studies": "useful"}
{"substance": "LQGA (tetramer peptide)", "identified as useful peptide for treatment of radiation injury from cell-cycle studies in plants and in vitro proliferation studies": "useful"}
{"substance": "LNEAL (pentamer peptide)", "identified as useful peptide for treatment of radiation injury from cell-cycle studies in plants and in vitro proliferation studies": "useful"}
{"substance": "VGQL (tetramer peptide)", "identified as useful peptide for treatment of radiation injury from cell-cycle studies in plants and in vitro proliferation studies": "useful"}
{"substance": "CPRGVNP", "identified as useful peptide for treatment of radiation injury from cell-cycle studies in plants and in vitro proliferation studies": "useful"}
{"tested_on": "cell-cycle marker pCDG and auxin-responsive marker DR5::GUS", "assay": "Arabidopsis thaliana seedling cell-cycle analysis (GUS markers)", "conditions": "seedlings incubated four and eight hours; 5 mg/ml peptide solution", "procedure": "as §1, §2, §3, §4, §5"}
{"substance": "DINGFLPAL", "effect on cell-cycle marker (pCDG) and auxin-responsive marker (DR5::GUS) (in words)": "less consistent and time-dependent effect"}
